Paper PMC11968394, “The effect of deuterated PLK1 inhibitor on its safety and efficacy in vivo” (Frontiers in Oncology, 2025)
“And” between values parts separate entries of the source, which are not always exact repeats. Equal values may be shown once. Read-outs that look alike come from different tables or passages of the source.

Experiments:
MIA PaCa-2 = experiment: Cell viability (CellTiter-Glo, 72 h), MIA PaCa-2; assay type: cell-based, Human; conditions: MIA PaCa-2, 72 hours; for IC50: Homo sapiens; for Bottom: dose-response curve bottom; for Top: dose-response curve top
Experimental: (§1) Human pancreatic cancer cell lines (PSN1, PANC-1, Panc 04.03, MIA PaCa-2, BxPC-3, and Capan-1) were cultured in their respective culture media. PSN1 cell lines were maintained in RPMI 1640 + 10%FBS. MIA PaCa-2 cells were cultured in DMEM+10%FBS+5% horse serum. Panc 04.03 cells were grown in RPMI 1640 + 15%FBS+10μg/mL Insulin. PANC-1 cells were maintained in DMEM+10%FBS. BxPC-3 cells were cultured in RPMI 1640 + 10%FBS. Capan-1 cells were grown in IMDM+20%FBS. All cells were incubated at 37°C in a humidified atmosphere containing 5% CO2.
(§2) For assays, cells in the logarithmic growth phase were harvested, seeded to different concentrations at 2,000-6,000 cells/well in 96-well plates. Following overnight incubation, test compounds were added at various concentrations and incubated for 72 hours. Cell viability was assessed by the ATP concentration using the CellTiter-Glo reagent (Promega, Madison, WI 53711 USA), and luminescence values were recorded by a Multilabel Reader (PerkinElmer, Waltham, MA, USA).

Panc04.03 = experiment: Cell viability (CellTiter-Glo, 72 h), Panc04.03; assay type: cell-based, Human; conditions: Panc04.03, 72 hours; for IC50: Homo sapiens, Panc 04.03; for Bottom: dose-response curve bottom; for Top: dose-response curve top
Experimental: as §1, §2

PANC-1 = experiment: Cell viability (CellTiter-Glo, 72 h), PANC-1; assay type: cell-based, Human; conditions: PANC-1, 72 hours; for IC50: Homo sapiens; for Bottom: dose-response curve bottom; for Top: dose-response curve top
Experimental: as §1, §2

BxPC-3 = experiment: Cell viability (CellTiter-Glo, 72 h), BxPC-3; assay type: cell-based, Human; conditions: BxPC-3, 72 hours; for Bottom: dose-response curve bottom; for Top: dose-response curve top; for IC50: Homo sapiens
Experimental: as §1, §2

Capan-1 = experiment: Cell viability (CellTiter-Glo, 72 h), Capan-1; assay type: cell-based, Human; conditions: Capan-1, 72 hours; for Bottom: dose-response curve bottom; for Top: dose-response curve top; for IC50: Homo sapiens
Experimental: as §1, §2

CLK2 = CLK2 (Homo sapiens, UniProt P49760); experiment: Kinase assay CLK2; assay type: biochemical
Chain of CLK2 (P49760 whole entry, species assumed): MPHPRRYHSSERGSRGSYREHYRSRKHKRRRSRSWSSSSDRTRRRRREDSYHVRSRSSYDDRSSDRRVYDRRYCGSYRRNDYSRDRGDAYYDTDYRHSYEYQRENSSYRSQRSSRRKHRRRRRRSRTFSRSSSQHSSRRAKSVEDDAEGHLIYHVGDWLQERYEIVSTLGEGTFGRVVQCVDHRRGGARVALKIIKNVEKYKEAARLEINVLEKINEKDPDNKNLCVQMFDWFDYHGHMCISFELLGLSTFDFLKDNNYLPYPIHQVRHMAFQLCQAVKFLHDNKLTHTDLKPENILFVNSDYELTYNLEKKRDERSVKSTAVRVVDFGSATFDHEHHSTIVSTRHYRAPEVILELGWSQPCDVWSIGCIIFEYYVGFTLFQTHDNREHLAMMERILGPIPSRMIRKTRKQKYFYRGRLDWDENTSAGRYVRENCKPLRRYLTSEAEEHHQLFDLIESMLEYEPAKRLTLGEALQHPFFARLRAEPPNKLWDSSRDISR
Experimental: (§3) Serial dilutions in DMSO were prepared. PLK1 was serially diluted 5-fold from 10 μM, yielding concentrations from 10000 nM to 0.00512 nM. Other targets were serially diluted 3-fold from 10 μM, yielding concentrations from 10000 nM to 0.5 nM. We have used two kinase assays: HTRF assay and ADG-Glo assay.
(§4) For HTRF Assay, 2× ATP/substrate solution and 2× kinase solution were prepared in kinase reaction buffer. Using an Echo 655, 50 nL of each diluted compound was transferred to a 384-well detection plate. The plate was centrifuged at 1000 rpm for 1 minute. 2.5 μL of 2× kinase solution was added to each well. The plate was incubated at 25°C for 10 minutes. 2.5 μL of 2× ATP/substrate solution was added to each well. The plate was centrifuged at 1000 rpm for 1 minute. The plate was incubated at 25°C for 40 minutes. 2× XL665 and antibody detection reagent were prepared in detection buffer. 5 μL of the prepared kinase detection reagent was added to each well. The plate was centrifuged at 1000 rpm for 1 minute. The plate was incubated at 25°C for 1 hour. Fluorescence signals at 620 nm (Cryptate) and 665 nm (XL665) were measured using a multifunction plate reader.
(§5) For ADP-Glo Assay, 2× ATP/substrate solution and 2× kinase solution were prepared in kinase reaction buffer. […] Luminescence signals were measured using a multifunction plate reader.

RON = RON (Homo sapiens, UniProt Q04912); experiment: Kinase assay RON; assay type: biochemical
Chain of RON (Q04912 25-1400, species assumed): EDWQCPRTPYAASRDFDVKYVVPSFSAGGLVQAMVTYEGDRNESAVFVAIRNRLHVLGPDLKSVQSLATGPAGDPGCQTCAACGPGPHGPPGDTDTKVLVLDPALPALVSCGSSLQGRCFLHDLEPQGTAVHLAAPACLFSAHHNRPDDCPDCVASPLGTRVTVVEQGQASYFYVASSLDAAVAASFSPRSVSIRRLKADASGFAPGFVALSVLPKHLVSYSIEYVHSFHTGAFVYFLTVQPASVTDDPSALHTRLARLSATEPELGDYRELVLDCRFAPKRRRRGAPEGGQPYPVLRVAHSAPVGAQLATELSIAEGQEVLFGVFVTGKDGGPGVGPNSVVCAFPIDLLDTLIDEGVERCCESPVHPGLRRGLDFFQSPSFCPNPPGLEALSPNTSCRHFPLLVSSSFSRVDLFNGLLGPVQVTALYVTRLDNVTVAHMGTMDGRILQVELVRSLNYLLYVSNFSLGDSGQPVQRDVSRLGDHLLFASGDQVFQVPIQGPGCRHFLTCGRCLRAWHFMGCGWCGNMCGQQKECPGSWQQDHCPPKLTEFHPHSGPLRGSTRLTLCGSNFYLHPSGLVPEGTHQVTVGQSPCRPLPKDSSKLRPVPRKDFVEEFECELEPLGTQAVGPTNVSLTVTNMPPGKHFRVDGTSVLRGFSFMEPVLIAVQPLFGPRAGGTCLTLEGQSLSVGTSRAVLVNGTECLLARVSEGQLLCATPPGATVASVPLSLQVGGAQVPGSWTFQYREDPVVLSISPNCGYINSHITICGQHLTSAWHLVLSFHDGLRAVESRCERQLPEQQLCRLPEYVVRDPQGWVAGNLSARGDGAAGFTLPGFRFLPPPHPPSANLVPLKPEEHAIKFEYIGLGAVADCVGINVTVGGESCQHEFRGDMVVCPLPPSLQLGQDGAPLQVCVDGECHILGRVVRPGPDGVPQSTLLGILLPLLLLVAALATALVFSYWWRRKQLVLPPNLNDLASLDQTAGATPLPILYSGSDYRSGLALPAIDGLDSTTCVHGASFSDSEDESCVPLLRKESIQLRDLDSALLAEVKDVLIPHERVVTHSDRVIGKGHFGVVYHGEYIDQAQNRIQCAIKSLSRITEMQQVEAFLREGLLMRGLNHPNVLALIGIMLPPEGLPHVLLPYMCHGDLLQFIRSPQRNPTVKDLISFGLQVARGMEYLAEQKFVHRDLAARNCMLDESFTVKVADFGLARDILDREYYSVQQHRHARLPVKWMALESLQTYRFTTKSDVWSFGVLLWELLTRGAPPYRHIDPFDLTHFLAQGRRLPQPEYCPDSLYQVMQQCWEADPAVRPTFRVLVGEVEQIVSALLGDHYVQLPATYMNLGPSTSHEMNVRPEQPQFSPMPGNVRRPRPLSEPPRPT
Experimental: as §3, §4, §5

CK1ϵ = CK1ϵ (Homo sapiens, UniProt P49674); experiment: Kinase assay CK1ϵ; assay type: biochemical
Chain of CK1ϵ (P49674 whole entry): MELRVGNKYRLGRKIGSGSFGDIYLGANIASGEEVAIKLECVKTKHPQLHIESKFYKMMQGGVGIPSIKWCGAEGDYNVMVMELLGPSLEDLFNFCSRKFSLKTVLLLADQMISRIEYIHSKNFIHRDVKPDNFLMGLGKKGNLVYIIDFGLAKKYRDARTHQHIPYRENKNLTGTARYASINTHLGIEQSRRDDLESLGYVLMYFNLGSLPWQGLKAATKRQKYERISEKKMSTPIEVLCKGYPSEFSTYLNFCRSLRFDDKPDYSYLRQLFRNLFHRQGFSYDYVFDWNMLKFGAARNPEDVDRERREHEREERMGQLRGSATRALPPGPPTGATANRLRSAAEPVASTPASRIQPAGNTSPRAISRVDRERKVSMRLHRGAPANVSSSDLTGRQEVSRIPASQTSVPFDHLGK
Experimental: as §3, §4, §5

DYRK3 = DYRK3 (Homo sapiens, UniProt O43781); experiment: Kinase assay DYRK3; assay type: biochemical
Chain of DYRK3 (O43781 whole entry, species assumed): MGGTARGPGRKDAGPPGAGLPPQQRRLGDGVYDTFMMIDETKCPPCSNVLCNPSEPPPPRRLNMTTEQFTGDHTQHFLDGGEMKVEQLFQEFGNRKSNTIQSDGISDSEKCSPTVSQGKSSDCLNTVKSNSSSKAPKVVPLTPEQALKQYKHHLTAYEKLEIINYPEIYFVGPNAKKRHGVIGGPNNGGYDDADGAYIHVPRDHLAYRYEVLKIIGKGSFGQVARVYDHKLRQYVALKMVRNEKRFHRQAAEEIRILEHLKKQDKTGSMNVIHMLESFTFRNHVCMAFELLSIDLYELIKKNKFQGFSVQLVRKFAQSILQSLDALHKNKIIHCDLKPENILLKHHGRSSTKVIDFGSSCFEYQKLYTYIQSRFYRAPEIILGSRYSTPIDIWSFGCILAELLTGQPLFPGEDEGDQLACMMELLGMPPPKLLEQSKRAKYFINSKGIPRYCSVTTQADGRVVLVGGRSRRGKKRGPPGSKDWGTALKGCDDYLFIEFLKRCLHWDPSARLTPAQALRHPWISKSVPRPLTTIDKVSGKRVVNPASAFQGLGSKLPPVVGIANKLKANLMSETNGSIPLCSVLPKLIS
Experimental: as §3, §4, §5

CK1α = CK1α (Homo sapiens, UniProt P48729); experiment: Kinase assay CK1α; assay type: biochemical
Chain of CK1α (P48729 whole entry): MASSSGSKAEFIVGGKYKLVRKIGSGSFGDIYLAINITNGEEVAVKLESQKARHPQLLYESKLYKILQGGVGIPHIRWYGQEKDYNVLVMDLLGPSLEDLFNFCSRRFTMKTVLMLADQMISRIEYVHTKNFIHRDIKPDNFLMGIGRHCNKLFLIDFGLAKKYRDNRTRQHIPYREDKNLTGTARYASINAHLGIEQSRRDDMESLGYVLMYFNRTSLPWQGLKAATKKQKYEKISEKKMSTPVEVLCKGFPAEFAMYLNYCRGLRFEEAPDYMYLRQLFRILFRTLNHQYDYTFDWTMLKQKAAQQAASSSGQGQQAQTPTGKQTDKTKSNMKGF
Experimental: as §3, §4, §5

[1] = Caco-2 permeability assay; assay type: in vitro ADME; conditions: for Permeability classification: Caco-2, by comparing Propranolol, Digoxin, Prazosin; for recovery at 2 h, 5 μM / Papp A→B at 2 h, 5 μM / Papp B→A at 2 h, 5 μM: human; for Papp A→B at 2 h, 5 μM / Papp B→A at 2 h, 5 μM: Caco-2, 5 μM
Experimental: Caco-2 cells were cultured in 10% FBS DMEM for 14-21 days before assays. […] HBSS was added to the opposite chamber. After 2 hours incubation at 37°C, samples were analyzed by LC-MS/MS. Fluorescein leakage was tested by adding 100 μM fluorescein to the upper chamber and measuring fluorescence after 30 minutes.

HCT 116 CDX model = experiment: HCT 116 CDX model; assay type: in vivo, BALB/c nude mouse; conditions: for Tumor growth: BALB/c nude mice; for Mice died: BALB/c nude, 8 mice/group
Experimental: These studies were performed at Yikon Medical (Beijing, China). Cancer cell line HCT 116 or BxPC-3 were cultured in 10% FBS RPMI-1640 medium plus penicillin, streptomycin, and glutamine at 37°C and 5% CO2 until reaching confluency. Cells were then prepared for inoculation. 5×10⁷ cells/mL cells in 100 µL were inoculated subcutaneously into the right flank of each female BALB/c nude mouse for HCT 116 cell line or female NOD SCID mouse for BxPC-3 cell line. […] […] Mice were dosed at least 10 days and were monitored for 30 days.
TGI was calculated as follows.

[2] = Caco-2, Caco-2, A-B, read-out: Recovery A-B%
[3] = Caco-2, Caco-2, B-A, read-out: Recovery B-A%

| SMILES | IC50 (MIA PaCa-2) [nM] | Bottom (MIA PaCa-2) | Top (MIA PaCa-2) | IC50 (Panc04.03) [nM] | Bottom (Panc04.03) | Top (Panc04.03) | IC50 (PANC-1) [nM] | Bottom (PANC-1) | Top (PANC-1) | Bottom (BxPC-3) | Top (BxPC-3) | IC50 (BxPC-3) [nM] | Bottom (Capan-1) | Top (Capan-1) | IC50 (Capan-1) [nM] | IC50 (CLK2) [nM] | IC50 (RON) [nM] | IC50 (CK1ϵ) [nM] | IC50 (DYRK3) [nM] | IC50 (CK1α) [nM] | further results |
| --- | --- | --- | --- | --- | --- | --- | --- | --- | --- | --- | --- | --- | --- | --- | --- | --- | --- | --- | --- | --- | --- |
| CN1CCN(c2ccc(OC(F)(F)F)c(Nc3ncc4c(n3)-c3c(c(C(N)=O)nn3CCO)CC4)c2)CC1 [NMS-P937] | 196 | -4.1 | 78.7 | 73 | -4 | 29.5 | 142 | -2.5 | 41.1 | -2.8 | 53.5 | 64.9 | 2.5 | 56.5 | 127 | 37 | 1090 | 156 | 114 | 184 | Permeability classification [1]: medium permeability; recovery at 2 h, 5 μM [1, 2]: 71.6%; recovery at 2 h, 5 μM [1, 3]: 93.3%; Papp A→B at 2 h, 5 μM [1]: 6.1 ×10⁻⁶ cm/s; Papp B→A at 2 h, 5 μM [1]: 34.2 ×10⁻⁶ cm/s; Body weight (HCT 116 CDX model; 60 mg/kg): significant loss of body weight; Tumor growth (HCT 116 CDX model): inhibited the growth of tumors in a dose-dependent manner; Mice died (HCT 116 CDX model; 30 mg/kg, 30 mg/kg): one mouse died and 1/8; Mice died (HCT 116 CDX model; 60 mg/kg, 60 mg/kg): three mice died and 3/8 |
| [2H]C1([2H])N(C)C([2H])([2H])C([2H])([2H])N(c2ccc(OC(F)(F)F)c(Nc3ncc4c(n3)-c3c(c(C(N)=O)nn3CCO)CC4)c2)C1([2H])[2H] [PR00012] | 262 | 8.4 | 86.8 | 83.8 | 10.8 | 42.5 | 237 | 9.8 | 53.1 | 13.6 | 66.3 | 65.1 | 15.6 | 68.5 | 115 | 24.8 | 905 | 156 | 112 | 182 | Permeability classification [1]: medium permeability; recovery at 2 h, 5 μM [1, 2]: 79.7%; recovery at 2 h, 5 μM [1, 3]: 89.7%; Papp A→B at 2 h, 5 μM [1]: 5.2 ×10⁻⁶ cm/s; Papp B→A at 2 h, 5 μM [1]: 34.7 ×10⁻⁶ cm/s; Tumor growth (HCT 116 CDX model): inhibited the growth of tumors in a dose-dependent manner; Mice died (HCT 116 CDX model; 30 mg/kg): No mice died; Mice died (HCT 116 CDX model; 60 mg/kg, 60 mg/kg): one mouse died and 1/8 |
